# Like-named read-outs stand apart in the source and are kept apart here.
# Assays:
# quagga mussels [1] = test: whole plant or invertebrate; conditions: Dreissena rostriformis
# quagga mussels [2] = test: Mussel bioassay test (live mussel jar-test); format: in vivo, Dreissena bugensis; conditions: Dreissena rostriformis, 16 μg/ml
# Protocol: Twenty freshly collected quagga mussels is placed in a jar containing 250 mL of de-chlorinated tap water at room temperature. Jars are kept at room temperature and connected into a manifold providing constant air supply through bubbling. Each test subject (HPLC fraction or peak) dissolved in DMSO is pipetted into jars separately at a concentration of 1-5 mg, and the mussels are incubated with the test subject for 24 hours. After the incubation period, water in each jar is discarded, and the mussels are rinsed with fresh water and transferred into open glass petri dishes for a 10-day observation period. Mussels are checked daily for mortality, and the dead mussels are removed and discarded. Each treatment is carried out in three replicates, and in the end of the 10-day incubation period, % mortality is calculated for each treatment.
# The potency of compounds isolated from Pseudomonas cell culture is tested using procedures described above.
# CL145A (ATCC 55799) = test: Antibiotic resistance profile, discs on Mueller-Hinton Agar; format: cell-based, Pseudomonas protegens strain CL145A; conditions: for CL145A resistant or sensitive to the antibiotic: antibiotic disc, 72 hours incubation; for Suppresses growth of CL145A: 25° C., 72 hours
# Protocol: One glycerol stock vial of CL145A was equally distributed onto Mueller-Hinton Agar plates (100 μl per plate) and spread on the plate using a sterile cell spreader. Antibiotic discs were then placed onto the plates along with a blank sterile disc. Plates were incubated at 25° C. in the dark for 72 hours.
# [3] = tested on: Brown garden snails (Cantareus aspersus); test: Snail experiments: chemical-containing corn starch; format: in vivo; conditions: 100 mg/gram corn starch; for Consumed amount of corn starch: after 24 hr
# Protocol: An appropriate amount of a testing compound is dissolved in acetone (2 mL) first. The solution was added into 2.5 gram of corn starch and mixed well. The resulting mixture is transferred to a Petri dish (Φ 25 mm). The Petri dish is then put in the hood for natural dry. After drying, water (2 mL) is added into the Petri dish to make paste.
# Brown garden snails (Cantareus aspersus) are collected from a house garden and raised at least 1 day in lab with cabbage or red carrot. Five individuals with a similar size are chosen for each treatment and transferred into a 1 L beaker. To make the snail active, some water is sprayed on them and in the beaker by using hand-sprayer. After spraying water, the Petri dish with chemical-containing corn starch is placed into the beaker the beaker is covered on the top with aluminum foil. Eating behavior, consumed amount of corn starch and mortality at 24 hr is recorded.
# [4] = 24 h, read-out: Molluscicidal effect (mortality) 24 hr
# [5] = 48 h, read-out: Molluscicidal effect (mortality) 48 hr
# [6] = 72 h, read-out: Molluscicidal effect (mortality) 72 hr
# [7] = 96 h, read-out: Molluscicidal effect (mortality) 96 hr
# [8] = 24 h, read-out: Potency toward quagga mussels (mortality) 24 hr
# [9] = 48 h, read-out: Potency toward quagga mussels (mortality) 48 hr
# [10] = 72 h, read-out: Potency toward quagga mussels (mortality) 72 hr
# [11] = 96 h, read-out: Potency toward quagga mussels (mortality) 96 hr
# [12] = 24 hr, read-out: % mortality 24 hr
# [13] = 48 hr, read-out: % mortality 48 hr
# [14] = 72 hr, read-out: % mortality 72 hr
# [15] = 96 hr, read-out: % mortality 96 hr
compound,measurement,setting,value
O=C1CCC(c2ccccc2)O1 (stereo not drawn) [SAR-013],mortality at 11.1 µg/mL,quagga mussels [1]; [4],0%
same,mortality at 11.1 µg/mL,quagga mussels [1]; [5],0%
same,mortality at 11.1 µg/mL,quagga mussels [1]; [6],0%
same,mortality at 11.1 µg/mL,quagga mussels [1]; [7],0%
"CCCCCCCCCC(=O)N1CCCC1 [SAR-007, N-(Decanoyl)pyrrolidine]",mortality at 11.1 µg/mL,quagga mussels [1]; [8],35 ± 7%
same,mortality at 11.1 µg/mL,quagga mussels [1]; [9],50 ± 14%
same,mortality at 11.1 µg/mL,quagga mussels [1]; [10],55 ± 21%
same,mortality at 11.1 µg/mL,quagga mussels [1]; [11],65 ± 21%
CCCCCCCCCC1CCCC(=O)O1 (stereo not drawn) [SAR-004],mortality at 11.1 µg/mL,quagga mussels [1]; [4],0%
same,mortality at 11.1 µg/mL,quagga mussels [1]; [5],0%
same,mortality at 11.1 µg/mL,quagga mussels [1]; [6],0%
same,mortality at 11.1 µg/mL,quagga mussels [1]; [7],0%
CCCCC/C=C/C(O)CCCCCCC1CCC(=O)O1 (stereo not drawn) [Piliferolide A],mortality at 16 µg/mL,quagga mussels [2]; [12],53.3 ± 15.3%
same,mortality at 16 µg/mL,quagga mussels [2]; [13],53.3 ± 15.3%
same,mortality at 16 µg/mL,quagga mussels [2]; [14],70 ± 10%
same,mortality at 16 µg/mL,quagga mussels [2]; [15],80 ± 10%
[H]/N=C(/N)N[C@H]1[C@H](O)[C@@H](O)[C@H](O[C@@H]2O[C@@H](C)[C@](O)(C=O)[C@H]2O[C@@H]2O[C@@H](CO)[C@H](O)[C@@H](O)[C@@H]2NC)[C@@H](N/C(N)=N\[H])[C@@H]1O [Streptomycin],CL145A resistant or sensitive to the antibiotic,CL145A (ATCC 55799),resistant
same,Suppresses growth of CL145A,CL145A (ATCC 55799); disc 10 μg,No
"CCCCCCCC=CC(=O)N1CCCC1 [SAR-030, N-(Decenoyl)pyrrolidine]",Effect on brown garden snails,[3],kill all brown garden snails after they ate
same,Consumed amount of corn starch,[3],Less than 5%
"CCCCCCCCCC(=O)N1CCCCC1 [SAR-021, N-(Decanoyl)piperidine]",mortality at 11.1 µg/mL,quagga mussels [1]; [8],55 ± 21%
same,mortality at 11.1 µg/mL,quagga mussels [1]; [9],55 ± 21%
same,mortality at 11.1 µg/mL,quagga mussels [1]; [10],60 ± 14%
same,mortality at 11.1 µg/mL,quagga mussels [1]; [11],65 ± 7%
CCCCC/C=C/C(O)CCCCCCCCCC(=O)O (stereo not drawn) [11-Hydroxy-12-ene-octadecanoic acid],mortality at 16 µg/mL,quagga mussels [2]; [12],0%
same,mortality at 16 µg/mL,quagga mussels [2]; [13],20 ± 20%
same,mortality at 16 µg/mL,quagga mussels [2]; [14],33.3 ± 20.8%
same,mortality at 16 µg/mL,quagga mussels [2]; [15],40 ± 26.5%
CCCCCCC1CCC(=O)O1 (stereo not drawn) [SAR-014],mortality at 11.1 µg/mL,quagga mussels [1]; [4],0%
same,mortality at 11.1 µg/mL,quagga mussels [1]; [5],0%
same,mortality at 11.1 µg/mL,quagga mussels [1]; [6],0%
same,mortality at 11.1 µg/mL,quagga mussels [1]; [7],0%
same,Effect on brown garden snails,[3],strongly repel brown garden snails
same,24 hr mortality,[3]; 24 hr,0%
same,Consumed amount of corn starch,[3],0% after
CC1(C)S[C@@H]2[C@H](NC(=O)[C@H](N)c3ccccc3)C(=O)N2[C@H]1C(=O)O [Ampicillin],CL145A resistant or sensitive to the antibiotic,CL145A (ATCC 55799),resistant
same,Suppresses growth of CL145A,CL145A (ATCC 55799); disc 10 μg,No
Penicillin,CL145A resistant or sensitive to the antibiotic,CL145A (ATCC 55799),resistant
same,Suppresses growth of CL145A,CL145A (ATCC 55799); disc 10 μg,No
CCCCCCCC1CCOC1=O (stereo not drawn) [SAR-002],mortality at 11.1 µg/mL,quagga mussels [1]; [4],30 ± 10%
same,mortality at 11.1 µg/mL,quagga mussels [1]; [5],66.7 ± 15.3%
same,mortality at 11.1 µg/mL,quagga mussels [1]; [6],73.3 ± 11.5%
same,mortality at 11.1 µg/mL,quagga mussels [1]; [7],76.7 ± 15.3%
"O=C(/C=C/c1ccccc1)N1CCCCCC1 [SAR-026, N-(trans-Cinnamoyl) hexamethyleneimine]",mortality at 11.1 µg/mL,quagga mussels [1]; [8],0%
same,mortality at 11.1 µg/mL,quagga mussels [1]; [9],0%
same,mortality at 11.1 µg/mL,quagga mussels [1]; [10],0%
same,mortality at 11.1 µg/mL,quagga mussels [1]; [11],0%
"O=C(/C=C/c1ccccc1)N1CCCCC1 [SAR-025, N-(trans-Cinnamoyl)piperidine]",mortality at 11.1 µg/mL,quagga mussels [1]; [8],0%
same,mortality at 11.1 µg/mL,quagga mussels [1]; [9],0%
same,mortality at 11.1 µg/mL,quagga mussels [1]; [10],0%
same,mortality at 11.1 µg/mL,quagga mussels [1]; [11],0%
CCCC1CCC(=O)O1 (stereo not drawn) [SAR-011],mortality at 11.1 µg/mL,quagga mussels [1]; [4],0%
same,mortality at 11.1 µg/mL,quagga mussels [1]; [5],0%
same,mortality at 11.1 µg/mL,quagga mussels [1]; [6],0%
same,mortality at 11.1 µg/mL,quagga mussels [1]; [7],0%
CCCCCC1CCC(=O)O1 (stereo not drawn) [SAR-008],mortality at 11.1 µg/mL,quagga mussels [1]; [4],0%
same,mortality at 11.1 µg/mL,quagga mussels [1]; [5],0%
same,mortality at 11.1 µg/mL,quagga mussels [1]; [6],0%
same,mortality at 11.1 µg/mL,quagga mussels [1]; [7],0%
CCCCCCCCCCCC(=O)O [SAR-005],mortality at 11.1 µg/mL,quagga mussels [1]; [4],0%
same,mortality at 11.1 µg/mL,quagga mussels [1]; [5],0%
same,mortality at 11.1 µg/mL,quagga mussels [1]; [6],0%
same,mortality at 11.1 µg/mL,quagga mussels [1]; [7],0%
CO/N=C(\C(=O)N[C@@H]1C(=O)N2C(C(=O)O)=C(COC(N)=O)CS[C@H]12)c1ccco1 [Cefuroxime],CL145A resistant or sensitive to the antibiotic,CL145A (ATCC 55799),resistant
same,Suppresses growth of CL145A,CL145A (ATCC 55799); disc 30 μg,No
"CCCCCCCCCC(=O)N1CCCCCC1 [SAR-022, N-(Decanoyl)hexamethyleneimine]",mortality at 11.1 µg/mL,quagga mussels [1]; [8],35 ± 7%
same,mortality at 11.1 µg/mL,quagga mussels [1]; [9],40 ± 14%
same,mortality at 11.1 µg/mL,quagga mussels [1]; [10],40 ± 14%
same,mortality at 11.1 µg/mL,quagga mussels [1]; [11],45 ± 21%
CCCCCCCCC1CCCC(=O)O1 (stereo not drawn) [SAR-003],mortality at 11.1 µg/mL,quagga mussels [1]; [4],3.3 ± 5.7%
same,mortality at 11.1 µg/mL,quagga mussels [1]; [5],10 ± 10%
same,mortality at 11.1 µg/mL,quagga mussels [1]; [6],10 ± 10%
same,mortality at 11.1 µg/mL,quagga mussels [1]; [7],10 ± 10%
Gentamicin,CL145A resistant or sensitive to the antibiotic,CL145A (ATCC 55799),sensitive
same,Suppresses growth of CL145A,CL145A (ATCC 55799); disc 10 μg,Yes
"CCCCCCCCCC(=O)NC1CCCC1 [SAR-020, N-Cyclopentyldecanamide]",mortality at 11.1 µg/mL,quagga mussels [1]; [8],75 ± 7%
same,mortality at 11.1 µg/mL,quagga mussels [1]; [9],75 ± 7%
same,mortality at 11.1 µg/mL,quagga mussels [1]; [10],75 ± 7%
same,mortality at 11.1 µg/mL,quagga mussels [1]; [11],75 ± 7%
CC[C@H]1OC(=O)[C@H](C)[C@@H](O[C@H]2C[C@@](C)(OC)[C@@H](O)[C@H](C)O2)[C@H](C)[C@@H](O[C@@H]2O[C@H](C)C[C@H](N(C)C)[C@H]2O)[C@](C)(O)C[C@@H](C)C(=O)[C@H](C)[C@@H](O)[C@]1(C)O [Erythromycin],CL145A resistant or sensitive to the antibiotic,CL145A (ATCC 55799),resistant
same,Suppresses growth of CL145A,CL145A (ATCC 55799); disc 15 μg,No
CCCCCCCCC(O)CCC(=O)O (stereo not drawn) [SAR-006],mortality at 11.1 µg/mL,quagga mussels [1]; [4],0%
same,mortality at 11.1 µg/mL,quagga mussels [1]; [5],0%
same,mortality at 11.1 µg/mL,quagga mussels [1]; [6],0%
same,mortality at 11.1 µg/mL,quagga mussels [1]; [7],0%
CCCCCCCCC1CCC(=O)O1 (stereo not drawn) [SAR-001],mortality at 11.1 µg/mL,quagga mussels [1]; [4],86.7 ± 5.8%
same,mortality at 11.1 µg/mL,quagga mussels [1]; [5],96.7 ± 5.8%
same,mortality at 11.1 µg/mL,quagga mussels [1]; [6],96.7 ± 5.8%
same,mortality at 11.1 µg/mL,quagga mussels [1]; [7],96.7 ± 5.8%
CCN1CCN(C(=O)N[C@@H](C(=O)N[C@@H]2C(=O)N3[C@@H]2SC(C)(C)[C@@H]3C(=O)O)c2ccccc2)C(=O)C1=O [Piperacillin],CL145A resistant or sensitive to the antibiotic,CL145A (ATCC 55799),sensitive
same,Suppresses growth of CL145A,CL145A (ATCC 55799); disc 100 μg,Yes
O=C(N[C@H](CO)[C@H](O)c1ccc([N+](=O)[O-])cc1)C(Cl)Cl [Chloramphenicol],CL145A resistant or sensitive to the antibiotic,CL145A (ATCC 55799),resistant
same,Suppresses growth of CL145A,CL145A (ATCC 55799); disc 30 μg,No
"CCCCCCC/C=C/C(=O)NC1CCCC1 [SAR-027, N-Cyclopentyldecenamide]",mortality at 11.1 µg/mL,quagga mussels [1]; [8],85 ± 7%
same,mortality at 11.1 µg/mL,quagga mussels [1]; [9],95 ± 7%
same,mortality at 11.1 µg/mL,quagga mussels [1]; [10],95 ± 7%
same,mortality at 11.1 µg/mL,quagga mussels [1]; [11],95 ± 7%
"O=C(/C=C/c1ccccc1)NC1CCCC1 [SAR-023, N-Cyclopentylcinnamamide]",mortality at 11.1 µg/mL,quagga mussels [1]; [8],0%
same,mortality at 11.1 µg/mL,quagga mussels [1]; [9],0%
same,mortality at 11.1 µg/mL,quagga mussels [1]; [10],0%
same,mortality at 11.1 µg/mL,quagga mussels [1]; [11],0%
"O=C(/C=C/c1ccccc1)N1CCCC1 [SAR-024, N-(trans-Cinnamoyl)pyrrolidine]",mortality at 11.1 µg/mL,quagga mussels [1]; [8],0%
same,mortality at 11.1 µg/mL,quagga mussels [1]; [9],0%
same,mortality at 11.1 µg/mL,quagga mussels [1]; [10],0%
same,mortality at 11.1 µg/mL,quagga mussels [1]; [11],0%

# Reference: patent US9414590B2, “Chemical and biological agents for the control of molluscs” (priority 2009, dated 2016)
